This passage reports IC50 and cell killing effect results from patent EP0806963B1, “CARCINOMA TREATMENT” (THE UNIVERSITY OF BIRMINGHAM, priority 1994, dated 1996).

In assay [1] the test system is Rat-1/CD40 CI.8 cell line. Nature of the assay: MTT colorimetric cell growth assay (Mossman), CD40-transfected Rat-1 fibroblasts. Format: cell-based. From the text: A human ovarian carcinoma cell line A2780 and its cis-platin-resistant derivative 2780CP ( see Masuda et al., Cancer Res., 50, 1863-1866, 1990), an EJ bladder carcinoma cell line (Accession No.85061108, European Collection of Animal Cell Cultures, Porton Down, UK ) and Rat-1 fibroblasts (Lania et al., Virology, 101, 217-232, 1980) were continuously maintained in RPMI 1640 medium (GIBCOBRL, Life technologies Ltd, Paisley, Scotland) supplemented with 10% FCS (foetal calf serum - ICN Flow, Thane, Oxfordshire, England), 2mM glutamine, and the antibiotics, penicillin (1000 U/ml) and streptomycin (1mg/ml) (Sigma Co. Ltd, Poole, Dorset, England) at 37°C in a 5% CO2 atmosphere. […]
(§1) Inhibition of cell proliferation was evaluated using the colorimetric assay of Mossman (see Mossman, J. Immunol. Meths., 65, 55-63, 1983). […] Various concentrations of G28.5 mAb were then added and their effect on cell growth was evaluated after an appropriate period of time (48, 72 or 96 hrs) by the addition of 20 µl of 5 mg/ml MTT (3-([…])-2,5-diphenyl tetrazolium bromide) obtained from Sigma, in PBS. The cells were further incubated for 5 hrs at 37°C, formazan crystals thus formed were dissolved in DMSO and the optical density (O.D.) was recorded at 550nm on a Becton Dickinson Multiscan. […] After 48 hours, cell growth was assessed using the MTT assay as described above. […]

In assay [2] the test system is ovarian carcinoma cell line A2780. The assay can be described thus: MTT colorimetric cell growth assay (Mossman), A2780. Format: cell-based, human. As to conditions: 48 hour MTT assay.
Excerpt: A human ovarian carcinoma cell line A2780 and its cis-platin-resistant derivative 2780CP ( see Masuda et al., Cancer Res., 50, 1863-1866, 1990), an EJ bladder carcinoma cell line (Accession No.85061108, European Collection of Animal Cell Cultures, Porton Down, UK ) and Rat-1 fibroblasts (Lania et al., Virology, 101, 217-232, 1980) were continuously maintained in RPMI 1640 medium (GIBCOBRL, Life technologies Ltd, Paisley, Scotland) supplemented with 10% FCS (foetal calf serum - ICN Flow, Thane, Oxfordshire, England), 2mM glutamine, and the antibiotics, penicillin (1000 U/ml) and streptomycin (1mg/ml) (Sigma Co. Ltd, Poole, Dorset, England) at 37°C in a 5% CO2 atmosphere.
as §1
Background: Tetrazolium dyes change colour on reduction, which living cells bring about.

pIC50: −log10 of the molar value.

Turning to `N.N.[Cl][Pt][Cl]` [cis-platin], the pIC50 (in general, the IC50 on a negative log10 scale, so that one unit is a factor of ten) in assay [1] (cis-platin with 1 µg/ml G28.5 mAb, spread +/- 0.3) is 5.38; in assay [1] (cis-platin without G28.5 mAb, spread +/- 0.9) it was 5.22. In addition, the cell killing effect was determined as 46% in assay [2] (5 µM cis-platin alone) and 61% in assay [2] (5 µM cis-platin with 10 µg/ml G28.5 mAb).
